# Results taken from publication PMC4549624 (Scientific Reports, 2015).
# Like-named read-outs stand apart in the source and are kept apart here.
# Key:
# KCNQ1 = details: cited from earlier work
# KCNE1-R32D (human) = KCNE1-R32D (human) (UniProt P15382)
# KCNE1 (human) = KCNE1 (human) (UniProt P15382)
molecule,measurement,setting,value
COc1ccc(-c2csc(NC(=O)[C@H]3CCCCN3S(=O)(=O)c3ccc(C)cc3)n2)cc1 [ML277],effect on KCNQ1,"KCNQ1; binds to side pocket in KCNQ1, especially KCNE1-free side pocket, in words",enhance the amplitude of the KCNQ1 current
SSD609 (peptide),"current of KCNQ1/KCNE1-R32D left under SSD609 in transfected CHO cells, whole-cell patch clamp",KCNE1-R32D (human),< 10%
same,"current of wild-type KCNQ1/KCNE1 left under SSD609 in transfected CHO cells, whole-cell patch clamp (reference of the R32D mutant)",KCNE1 (human),30%
O=C(Nc1cc(C(F)(F)F)ccc1O)Nc1cc(C(F)(F)F)ccc1O [NS1643],effect on KCNQ1,"KCNQ1; binds to KCNQ1, in words",enhance the channel conductance
CCS(=O)(=O)N(C)[C@H]1c2cc(C#N)ccc2OC(C)(C)[C@@H]1O (racemic) [chromanol 293B],effect on KCNQ1,KCNQ1,inhibit the channel
